In data set [1] the test system is human erythrocytes. Description: Hemolytic activity. The conditions noted are these: 15% suspension in PBS, 1 h, 37 °C, absorbance 540 nm, highest tested concentration 100 µM. It is filed as cell-based.
Data set [2] is described as follows: Carboxyfluorescein release assay, bacterial liposome model. It is filed as biochemical. The conditions noted are these: 75:25 POPC:POPG liposomes, 25 µM lipid, 10 mM PBS pH 7.4, 10^–5–10^2 µM peptide, 60 min, fluorescence, Hill fit, n = 3; read-out: EC50 Bacterial (concentration that triggers 50% CF release). The procedure, abridged: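 CF-loaded extruded 0.1 µm unilamellar liposomes: bacterial POPC:POPG 75:25, mammalian POPC:POPS:Chol 65:5:30. Liposomes at 25 µM lipid in PBS pH 7.4 incubated with peptide (10^–5–10^2 µM; n = 3), fluorescence read every 2.5 min for 1 h. Release normalized to 1% Triton X-100; EC50 from Hill-1 fit.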

Data set [3] deals with S. aureus (ATCC 29213). In kind it is cell-based. The conditions noted are these: ATCC 29213, 20 h.
In data set [4] the test system is E. coli (K-12 MG1655). In kind it is cell-based. The settings on record: K-12, 20 h.
Procedure: The broth microdilution method was used to determine minimal inhibitory concentration (MIC) and minimal bactericidal concentration (MBC), in accordance with the EUCAST standards for the broth microdilution method. Two-fold serial dilutions of the lipopeptides were used, and the final concentrations ranged from 0.19 to 100 µM. In brief, two-fold serial dilutions of the lipopeptides were performed in a 96-well plate in PBS, with a final volume of 100 µl per well, after which 100 µl of LB-broth media containing approximately 5 × 10^5 CFU/ml of bacteria was added to each well. The plate was then incubated for 20 h in 37 °C on a shaker (400 rpm). The effect of lipopeptide-antibiotic combinations was investigated by performing checkerboard assays. The assays were performed in accordance with the MIC and MBC tests conducted above, but with horizontal and longitudinal two-fold serial dilutions of the tested compounds. […] The fractional inhibitory concentration (FIC) and fractional bactericidal concentration (FBC) were calculated by the equation (MIC or MBC of peptide in combination/MIC or MBC of peptide alone) + (MIC or MBC of antibiotic in combination/MIC or MBC of antibiotic alone). Synergy was defined as FIC/FBC ≤ 0.5, additive when 0.5 < FIC/FBC ≤ 1, indifferent when 1 < FIC/FBC < 2 and antagonistic when FIC/FBC ≥ 2. All experiments were repeated at least three times.
Data set [5] has as its system E. coli. As to the method:
(§1) In order to evaluate the risk of the development of resistance towards the lipopeptide, a serial passage assay was conducted. […] MIC and MBC were determined for passages 0, 10, 20 and 30, using the broth microdilution method and compared with the unexposed bacteria (passage 0).

Data set [6] relates to S. aureus. As to the method: as §1
The mark [7] stands for this setting: E. coli p0 (unexposed bacteria, passage 0).
Where [8] appears, read: E. coli p10, cultured with 1 µM L-6-C5 in LB-broth.
Where [9] appears, read: E. coli p20, cultured with 1 µM L-6-C5 in LB-broth.
Where [10] appears, read: E. coli p30, cultured with 1 µM L-6-C5 in LB-broth.
[11] abbreviates: S. aureus p0 (unexposed bacteria, passage 0).
Setting [12] is: S. aureus p10, cultured with 1 µM L-6-C5 in LB-broth.
Where [13] appears, read: S. aureus p20, cultured with 1 µM L-6-C5 in LB-broth.
[14] abbreviates: S. aureus p30, cultured with 1 µM L-6-C5 in LB-broth.

≈ marks a conversion by molar mass, not a printed value. Read-outs that look alike come from different tables or passages of the source. Residues, ends and D or L forms follow the SMILES beside them. *: point of attachment. Pentanoyl = CCCCC(=O)*

What is called MBC is the lowest tested concentration that kills the bacteria rather than only halting them. A lower MBC goes with greater bactericidal potency. Broadly, the MIC is the lowest concentration that inhibits growth of the organism.

Take `CCCCC(=O)N[C@@H](CC(C)C)C(=O)NCC(=O)N[C@H](C(=O)N[C@@H](CCCCN)C(=O)N[C@H](C(=O)N[C@@H](CC(C)C)C(=O)N[C@@H](Cc1c[nH]c2ccccc12)C(=O)N[C@@H](CO)C(=O)N[C@@H](C)C(=O)N[C@@H](Cc1ccc(O)cc1)C(=O)N[C@@H](CCCCN)C(=O)N[C@@H](Cc1c[nH]cn1)C(=O)N[C@@H](CCCNC(=N)N)C(=O)N[C@@H](CCCCN)C(=O)N[C@H](C(=O)N[C@H](C(N)=O)[C@@H](C)CC)[C@@H](C)O)[C@@H](C)CC)[C@@H](C)CC` [L-6-C5] (Pentanoyl-LGIKILWSAYKHRKTI-NH2): the “HC, hemolytic concentration at 5% hemolytic activity” value in data set [1] was > 100 µM. For the same compound, the EC50 in data set [2] was 0.11 µM. Also, the “S. aureus MBC, lipopeptide alone” value in data set [3] was determined as 6.25 µM. Besides, the “S. aureus MIC, lipopeptide alone” value in data set [3] was 6.25 µM. For the same compound, the “E. coli MBC, lipopeptide alone” value in data set [4] is reported as 6.25 µM. In addition, in data set [4], the “E. coli MIC, lipopeptide alone” value was found to be 6.25 µM. The minimal bactericidal concentration (MBC) in data set [5] (setting [7]), in data set [5] (setting [8]), in data set [5] (setting [9]), in data set [5] (setting [10]), in data set [6] (setting [11]) and in data set [6] (setting [12]) was 6.3 µM (≈ 12.7 µg/mL) in each case. Also, the minimum bactericidal concentration (MBC) in data set [6] (setting [13]) and in data set [6] (setting [14]) was 6.3 µM (≈ 12.7 µg/mL) in each case. The MIC in data set [5] (setting [7]), in data set [5] (setting [8]), in data set [5] (setting [9]), in data set [5] (setting [10]), in data set [6] (setting [11]) and in data set [6] (setting [12]) was 6.3 µM (≈ 12.7 µg/mL) in each case. Also, the minimum inhibitory concentration (MIC) in data set [6] (setting [13]) and in data set [6] (setting [14]) was 6.3 µM (≈ 12.7 µg/mL) each time.
